Reference: US20250041267A1, “TREATEMENT FOR CRYOPYRIN ASSOCIATED PERIODIC SYNDROMES (CAPS)” (Zydus Lifesciences Limited, priority 2021, published 2025)
Where two headings read alike, the source gives them in different places.

Assays:
[1] = Phase 1 single oral dose safety and tolerability in healthy subjects; type: in vivo, human; details: till 100 mg single dose
[2] = tested on: activated THP-1 cells, hPBMCs and whole blood; experiment: IL-1β and IL-18 secretion from cells treated with LPS and ATP; type: cell-based, human
Protocol: Compound 11, a potent NLRP3 inflammazome inhibitor blocks the IL-1β and IL-18 secretion from activated THP-1 cells, hPBMCs (Human peripheral blood mononuclear cell) and whole blood treated with LPS (lipopolysaccharide) and ATP (Adenosine triphosphate). For the whole blood assay, human peripheral venous blood was collected from healthy volunteers following the protocol approved by ethics committee. Whole blood was distributed in 96-well plates and primed with LPS (500 ng/mL) for 4 hours. Different concentrations of compound 11 was added in the presence of serum free media. NLRP3 inflammasome was induced with ATP (5 mM) for 1 hour. The supernatant was collected at the end of 1 hour and assayed for released IL-1β using the ELISA method. The inhibition in the cytokine levels was plotted and the half maximal inhibitory concentration was derived.

[3] = Phase 1 single oral dose pharmacokinetics in healthy subjects (plasma and urine, LC-MS/MS); type: in vivo, human; details: for half-life / Cmax / dose excreted: human; for half-life / Cmax: plasma; for half-life: read-out: mean elimination half-life (converted); for dose excreted: urine, read-out: mean cumulative percentage urinary recovery of unchanged compound
[4] = 25 mg single oral dose, cohort S1
[5] = 50 mg single oral dose, cohort S2
[6] = 100 mg single oral dose, cohort S3

With CN1CCC[C@]1(C)/C=C/S(=O)(=O)NC(=O)Nc1c2c(cc3c1CCC3)CCC2 [Compound 11, (R,E)-2-(1,2-dimethylpyrrolidin-2-yl)-N-((1,2,3,5,6,7-hexahydro-s-indacen-4-yl)carbamoyl)ethene-1-sulfonamide] the safety and tolerability [1] was “safe and well tolerated”, the “IL-1β and IL-18 secretion” value [2] was “blocks” and the mean plasma clearance [3, 4] was 0.922 ± 0.01 L/h. The “mean volume of distribution” value [3, 4] was 8681.147 ± 929.14 mL, the mean plasma clearance [3, 5] was 1.238 ± 0.22 L/h and the “mean volume of distribution” value [3, 5] was 10285.52 ± 1174.32 mL. For the same compound, the mean plasma clearance [3, 6] was 1.099 ± 0.15 L/h, the “mean volume of distribution” value [3, 6] was 9847.576 ± 825.72 mL and the half-life ([3]; oral, across all three doses (25, 50, 100 mg)) was 6 to 6.5 h. It also gave a Cmax [3, 4] of 3.39 ± 0.72 µg/mL, a half-life [3, 4] of 6.53 ± 0.67 h and a Cmax [3, 5] of 5.72 ± 0.52 µg/mL. For the same compound, the half-life [3, 5] was 5.82 ± 0.47 h, the half-life [3, 6] was 6.28 ± 0.65 h and the dose excreted [3, 4] was 93.3%. For the same compound, the dose excreted [3, 5] was 69.1% and the dose excreted [3, 6] was 76.6%.
